Source: US20110071147A1, “4-AMINO-THIENO[3,2-C]PYRIDINE-7-CARBOXYLIC ACID AMIDES” (priority 2004, published 2011)
Structures can show the parent of a compound that is named as a salt.

Assays:
KDR = target: T1, KDR (Homo sapiens, UniProt P35968); test: KDR kinase HTRF assay; format: biochemical; conditions: recombinant EEE-tagged KDR, 0.3 mM ATP
T1 construct: EEE tag
Protocol: (§1) To determine inhibition of KDR and FGFR, kinase assays were conducted using an HTRF (Homogeneous Time Resolved Fluorescence) assay. This assay is described in A. J. Kolb et. al., Drug Discovery Today, 1998, 3(7), p 333.
Prior to kinase reaction, recombinant EEE-tagged KDR was activated in the presence of activation buffer (50 mM HEPES, pH 7.4, 1 mM DTT, 10% glycerol, 150 mM NaCl, 0.1 mM EDTA, 26 mM MgCl2, and 4 mM ATP). The enzyme was incubated at 4° C. for 1 hour.
Kinase activity assays were performed in 96-well polypropylene plates (Falcon) with a total volume of 90 μL in each well. Each well contained 1 μM KDR substrate (Biotin-EEEEYFELVAKKKK), 1 nM activated KDR, and a test compound with one of 8 assay concentrations ranging from 100 μM to […] (1:5 serial dilution). The kinase activity assay was done in the presence of 100 mM HEPES, pH 7.4, 1 mM DTT, 0.1 mM Na2VO4, 25 mM MgCl2, 50 mM NaCl (from KDR stock solution), 1% DMSO (from compound), 0.3 mM ATP (at Km concentration) and 0.02% BSA. The reaction was incubated at 37° C. for 30 minutes. To stop the KDR reaction, 72 μL of reaction mixture was transferred into a STOP plate containing 18 μL of revelation buffer (20 mM EDTA, 50 mM HEPES, pH 7.4, 0.02% BSA, 10 nM Eu-labelled anti-pY antibody (final conc. 2 nM), and 100 nM streptavidin (final conc. 20 nM)). After mixing, 35 μL of solution was transferred into duplicate wells of a 384-well black plate (Costar), and read at 615/665 nm on a Wallac Victor 5 reader.
(§2) Compound IC50 values were determined from duplicate sets of data, and calculated by using Excel and fitting data to equation Y=[(a−b)/{1+(X/c)^d]+b, where a and b are enzyme activity in the presence of no test inhibitor compound and an infinite amount of inhibitor test compound, respectively, c is the IC50 and d is the hill constant of the compound response. The IC50 value is the concentration of test compound that reduces by 50% the enzyme activity under the test conditions described.

FGFR = target: T2, FGFR; test: FGFR kinase HTRF assay; format: biochemical; conditions: GST-tagged FGFR, 10 μM ATP
T2 construct: fused on or other part: GST tag
Protocol: as §1
FGFR activity assays were carried out as described above for the KDR activity assay with the following differences. GST-tagged FGFR enzyme was activated at room temperature for 1 hour in the following activation buffer: 100 mM HEPES, pH 7.4, 50 mM NaCl, 20 mM MgCl2, and 4 mM ATP. The kinase activity assay was performed with 1 μM substrate (Biotin-EEEEYFELV), 1.5 nM activated FGFR, and test compound in the presence of 100 mM HEPES, 1 mM DTT, 0.4 mM MgCl2, 0.4 mM MnCl2, 50 mM NaCl, 1% DMSO, 10 μM ATP (Km=8.5 μM for FGFR), 0.1 mM Na2VO4, and 0.02% BSA, in a total volume of 90 μL. The rest of the assay was performed in the same manner as KDR assay.
as §2

VEGF-stimulated HUVEC = VEGF-stimulated HUVEC proliferation assay (BrdU); format: cell-based; conditions: Homo sapiens, VEGF 20 ng per mL, BrdU ELISA, read-out: VEGF-HUVEC (IC50, BrdU labeling)
Protocol: (§3) The antiproliferative activity of test compounds of this invention in cell-based assays was evaluated by BrdU assay using the BrdU kit (Roche Biochemicals 1-647-229). Human umbilical vein endothelial cells (HUVEC, Clonetics CC-2519) were cultured in EGM-2 (Clonetics CC-3162) medium and seeded at 10000 cells per well in a volume of 200 μL of EGM-2 (Clonetics CC-3162) media in a 96-well flat bottom plates (Costar 3595) overnight. After 24 hours of growth at 37° C. with 5% CO2, the incubation media was removed slowly by aspiration and the content of each well was washed with 300 μL pre-warmed EBM-2 (Clonetics CC-3156) containing 50 μg per mL of gentamycin and 50 ng per mL of amphotercin-B (Clonetics CC-4083). […]
(§4) After 24 hour exposure to the test compounds, the cells were labeled with BrdU (Roche Biochemicals 1-647-229), by adding 20 μL per well of BrdU labeling reagent that has been diluted (1:100) in serum starvation medium. […] The plates were read at 450 nm with reference wavelength of 650 nm. The percent inhibition for each test compound was calculated by subtracting the absorbency of the blank (no cells) wells from all wells, then subtracting the division of the average absorbency of each test duplicate by the average of the controls from 1. […] The IC50 is determined from the linear regression of a plot of the logarithm of the concentration versus percent inhibition.

FGF-stimulated HUVEC = FGF-stimulated HUVEC proliferation assay (BrdU); format: cell-based; conditions: Homo sapiens, FGF 5 ng per mL, BrdU ELISA, read-out: FGF-HUVEC (IC50, BrdU labeling)
Protocol: as §3, §4

T1 sequence (P35968 20-1356): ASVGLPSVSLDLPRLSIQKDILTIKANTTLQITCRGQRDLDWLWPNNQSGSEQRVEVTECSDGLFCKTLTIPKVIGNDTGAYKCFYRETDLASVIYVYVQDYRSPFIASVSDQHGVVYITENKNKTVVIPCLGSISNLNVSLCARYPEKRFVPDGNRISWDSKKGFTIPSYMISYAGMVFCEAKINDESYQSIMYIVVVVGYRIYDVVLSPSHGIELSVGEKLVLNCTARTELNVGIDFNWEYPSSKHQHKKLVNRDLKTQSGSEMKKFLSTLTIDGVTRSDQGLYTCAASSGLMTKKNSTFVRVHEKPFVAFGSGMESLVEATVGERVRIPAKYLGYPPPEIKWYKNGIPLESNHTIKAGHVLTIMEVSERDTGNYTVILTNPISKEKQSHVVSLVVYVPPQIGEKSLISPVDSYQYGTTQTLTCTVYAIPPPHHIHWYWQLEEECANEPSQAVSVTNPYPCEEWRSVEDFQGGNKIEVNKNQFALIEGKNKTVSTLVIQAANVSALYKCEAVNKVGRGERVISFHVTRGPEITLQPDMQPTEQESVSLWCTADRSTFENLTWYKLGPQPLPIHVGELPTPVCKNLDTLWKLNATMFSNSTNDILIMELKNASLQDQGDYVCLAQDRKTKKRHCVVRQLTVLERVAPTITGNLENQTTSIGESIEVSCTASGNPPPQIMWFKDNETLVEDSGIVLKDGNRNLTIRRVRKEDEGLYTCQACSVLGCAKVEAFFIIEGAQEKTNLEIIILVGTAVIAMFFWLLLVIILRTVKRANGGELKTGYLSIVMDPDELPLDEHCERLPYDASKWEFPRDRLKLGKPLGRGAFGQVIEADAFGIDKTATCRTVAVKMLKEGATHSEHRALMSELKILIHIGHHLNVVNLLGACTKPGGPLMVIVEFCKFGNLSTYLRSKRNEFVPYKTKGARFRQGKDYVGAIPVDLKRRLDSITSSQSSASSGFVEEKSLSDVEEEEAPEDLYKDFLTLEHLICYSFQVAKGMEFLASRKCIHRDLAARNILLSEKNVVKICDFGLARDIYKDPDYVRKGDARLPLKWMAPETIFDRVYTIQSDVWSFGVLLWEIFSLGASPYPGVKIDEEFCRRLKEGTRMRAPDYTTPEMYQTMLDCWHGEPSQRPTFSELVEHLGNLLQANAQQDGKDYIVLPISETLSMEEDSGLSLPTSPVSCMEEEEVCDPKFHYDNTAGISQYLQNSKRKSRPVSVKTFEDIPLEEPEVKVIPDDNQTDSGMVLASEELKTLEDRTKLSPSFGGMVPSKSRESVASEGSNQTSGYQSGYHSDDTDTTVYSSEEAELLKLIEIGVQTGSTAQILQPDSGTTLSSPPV

IC50 (KDR) [µM]	IC50 (FGFR) [µM]	Structure (SMILES)	IC50 (VEGF-stimulated HUVEC) [µM]	IC50 (FGF-stimulated HUVEC) [µM]
0.509	–	COc1ccc(OCc2csc3c(C(=O)NCCO)cnc(N)c23)c(Cl)c1 [Example 2, 4-Amino-3-(2-chloro-4-methoxy-phenoxymethyl)-thieno[3,2-c]pyridine-7-carboxylic acid (2-hydroxy-ethyl)-amide]	–	–
0.02	0.0724	Nc1ncc(C(=O)NCCO)c2scc(COc3ccc(Br)cc3)c12 [Example 4a, 4-Amino-3-(4-bromo-phenoxymethyl)-thieno[3,2-c]pyridine-7-carboxylic acid (2-hydroxy-ethyl)-amide]	0.264	2.76
0.0584	0.18	Nc1ncc(C(=O)NCCN2CCOCC2)c2scc(COc3ccc(Br)cc3)c12 [Example 13b, 4-Amino-3-(4-bromo-phenoxymethyl)-thieno[3,2-c]pyridine-7-carboxylic acid (2-morpholin-4-yl-ethyl)-amide hydrochloride salt]	0.204	0.627
